Data published in paper PMC3836906 (Cancer chemotherapy and pharmacology, 2013).
Where “and” joins values, the source holds several entries; their conditions need not be identical. Identical values can stand only once. Like-named read-outs stand apart in the source and are kept apart here.

Legend:
[1] = in vivo
[2] = in vivo; settings: CD2F1, mouse, iv, 20 mg/kg
[3] = tested on: mice; settings: mouse, in vivo
[4] = mouse, in vivo
[5] = tested on: human RXF-393 renal carcinoma cell xenografts; settings: mouse, in vivo; cited from earlier work
[6] = tested on: human 786-0 renal cell tumors; settings: mouse, in vivo; cited from earlier work
[7] = tested on: human ACHN renal cell tumors; settings: mouse, in vivo; cited from earlier work
[8] = tested on: A498 human renal cell cancer xenografts; settings: in vivo; cited from earlier work
[9] = tested on: cell cycle; settings: cited from earlier work
[10] = tested on: renal carcinoma cells; settings: cited from earlier work
[11] = in vivo; settings: CD2F1, mouse, iv, 20 mg/kg; remark: listed apart in the source
[12] = tested on: mice; settings: mouse, in vivo; remark: listed apart in the source
[13] = tested on: RBC ALDH; settings: mouse, in vivo, ip, 300 mg/kg; cited from earlier work
[14] = tested on: liver ALDH; settings: mouse, in vivo, ip, 300 mg/kg; cited from earlier work
[15] = tested on: ALDH1B1; settings: cited from earlier work

Cc1cc(N(CCO)CCO)ccc1C(=O)O [BA-(OH)2, 4-[bis[2-hydroxy-ethyl]amino]-2-methyl-benzoic acid]
Cl/F ([1]; mouse): 1.90 mL/min/kg and 1.20 mL/min/kg
Tmax ([1]; mouse): 10 min
Vd/F ([1]; mouse): 83 L/kg and 60 L/kg
Tmax ([2]; plasma): 10 min
half-life ([2]; plasma, Half-life, BEN 20 mg/kg iv alone): 29 min

Cc1cc(N(CCOS(C)(=O)=O)CCOS(C)(=O)=O)ccc1C=O [BEN, 4-[bis[2-[(methylsulfonyl)-oxy]ethyl]amino]-2-methyl-benzaldehyde]
Increase of BEN plasma exposure by disulfiram pretreatment ([1]; CD2F1, mouse): 368 fold
Time after administration at which analyte became undetectable in plasma ([1]; CD2F1, mouse): 15 min
Cl/F ([1]; CD2F1, mouse, iv, 20 mg/kg): 0.18 mL/min/kg
Tmax ([1]; CD2F1, mouse, iv, 20 mg/kg): 5 min
Vd/F ([1]; CD2F1, mouse, iv, 20 mg/kg): 120 L/kg
Day after dosing by which blood values returned to normal [3]: ≤ 14 days
Effect of disulfiram pretreatment on percentage lymphocytes nadir [3]: appeared to deepen
Hematocrits, white blood cells and percent lymphocytes following treatment [3]: decreased
Body weight loss [4]: approximately 12%
Cure rate [5]: > 70%
Anti-tumor activity [6]: significant activity
Anti-tumor activity [7]: significant activity
Effect on xenograft growth [8]: slowed the growth
Cell cycle effect [9]: S and G2/M cell cycle arrest
Activity in NCI 60 cell line screen [10]: specific activity
Tmax ([2]; in vivo): 5 min
CL renal [11]: 0.4 mL/min

CS(=O)(=O)OCCCCOS(C)(=O)=O [busulfan, reference compound]
Anti-tumor activity [5]: no activity

CCN(CC)C(=S)SSC(=S)N(CC)CC [disulfiram, Tetraethylthiuram disulfide]
Hepatic pathology [12]: mild hepatic lesions
Body weight loss [4]: approximately 12%
Reduction of ALDH activity in RBC compared to controls [13]: 81%
Reduction of ALDH activity in liver compared to controls [14]: 27%
Sensitivity of ALDH1B1 to inhibition [15]: insensitive to inhibition
